Experiments:
[1] = test system: T1, RFC (replication factor C); assay: bead pull-down of clamp-clamp loader-DNA ternary complex, Western blot; type: binding; conditions: 1 mM ATPγS, 7 mM MgCl2, pH 7.5, 30 °C; PCNA clamp, human RPA, 3' recessed primer-template DNA; nonhydrolyzable ATP analog
T1 construct: gene RFC1

[2] = test system: T2, RSR (Rad17–Rfc2–Rfc3–Rfc4–Rfc5) complex; assay: as above; type: binding; conditions: 1 mM ATPγS, 7 mM MgCl2, pH 7.5, 30 °C; RHR clamp, human RPA, 5' recessed primer-template DNA; nonhydrolyzable ATP analog
T2 construct: untagged
T2 sequence (O75943 whole entry): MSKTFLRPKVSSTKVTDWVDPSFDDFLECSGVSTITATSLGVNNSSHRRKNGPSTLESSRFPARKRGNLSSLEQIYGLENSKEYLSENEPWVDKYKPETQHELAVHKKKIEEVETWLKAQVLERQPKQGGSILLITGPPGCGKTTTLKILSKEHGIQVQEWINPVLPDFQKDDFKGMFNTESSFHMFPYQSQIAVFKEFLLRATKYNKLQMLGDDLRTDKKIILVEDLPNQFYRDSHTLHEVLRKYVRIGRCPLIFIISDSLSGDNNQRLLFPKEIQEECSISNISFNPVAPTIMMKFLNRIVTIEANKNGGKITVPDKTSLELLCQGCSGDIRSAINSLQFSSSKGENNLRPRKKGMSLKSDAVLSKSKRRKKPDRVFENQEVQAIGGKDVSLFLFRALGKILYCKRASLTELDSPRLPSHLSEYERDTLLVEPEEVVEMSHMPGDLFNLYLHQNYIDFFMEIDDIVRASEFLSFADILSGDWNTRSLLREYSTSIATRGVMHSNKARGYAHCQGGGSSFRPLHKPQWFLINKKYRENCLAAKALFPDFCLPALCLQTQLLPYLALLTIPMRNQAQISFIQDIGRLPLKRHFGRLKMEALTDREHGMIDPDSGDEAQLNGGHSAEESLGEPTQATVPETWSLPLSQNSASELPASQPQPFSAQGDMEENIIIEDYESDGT
T2 sequence (P35250 whole entry, further chain): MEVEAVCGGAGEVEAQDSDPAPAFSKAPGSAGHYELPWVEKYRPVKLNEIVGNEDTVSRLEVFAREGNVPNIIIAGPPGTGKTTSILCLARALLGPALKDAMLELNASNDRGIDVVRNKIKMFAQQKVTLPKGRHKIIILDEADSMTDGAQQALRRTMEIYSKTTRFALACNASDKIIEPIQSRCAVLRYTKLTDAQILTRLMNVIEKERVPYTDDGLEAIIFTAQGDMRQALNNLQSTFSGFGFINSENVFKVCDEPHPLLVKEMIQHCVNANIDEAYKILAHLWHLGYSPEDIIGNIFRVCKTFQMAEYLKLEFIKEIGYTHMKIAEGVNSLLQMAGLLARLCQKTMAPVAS
T2 sequence (P40938 whole entry, further chain): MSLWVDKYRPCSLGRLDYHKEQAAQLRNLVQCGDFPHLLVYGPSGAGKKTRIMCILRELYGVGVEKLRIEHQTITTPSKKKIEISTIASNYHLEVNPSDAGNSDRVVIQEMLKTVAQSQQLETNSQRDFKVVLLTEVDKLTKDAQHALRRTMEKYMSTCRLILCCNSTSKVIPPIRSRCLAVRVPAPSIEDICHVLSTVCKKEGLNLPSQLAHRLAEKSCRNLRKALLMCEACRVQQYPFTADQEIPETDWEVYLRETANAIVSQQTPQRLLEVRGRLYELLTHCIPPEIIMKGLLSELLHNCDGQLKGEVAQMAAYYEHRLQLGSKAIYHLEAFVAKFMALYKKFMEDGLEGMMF
T2 sequence (P35249 whole entry, further chain): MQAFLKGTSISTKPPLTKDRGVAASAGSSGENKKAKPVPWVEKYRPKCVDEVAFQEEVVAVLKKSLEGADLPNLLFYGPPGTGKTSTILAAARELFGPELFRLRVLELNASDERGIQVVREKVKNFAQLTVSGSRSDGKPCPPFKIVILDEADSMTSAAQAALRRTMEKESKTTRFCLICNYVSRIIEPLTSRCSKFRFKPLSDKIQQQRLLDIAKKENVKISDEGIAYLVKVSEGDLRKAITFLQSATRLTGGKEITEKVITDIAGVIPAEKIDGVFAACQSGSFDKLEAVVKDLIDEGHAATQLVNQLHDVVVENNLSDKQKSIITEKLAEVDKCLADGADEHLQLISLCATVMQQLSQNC
T2 sequence (P40937 whole entry, further chain): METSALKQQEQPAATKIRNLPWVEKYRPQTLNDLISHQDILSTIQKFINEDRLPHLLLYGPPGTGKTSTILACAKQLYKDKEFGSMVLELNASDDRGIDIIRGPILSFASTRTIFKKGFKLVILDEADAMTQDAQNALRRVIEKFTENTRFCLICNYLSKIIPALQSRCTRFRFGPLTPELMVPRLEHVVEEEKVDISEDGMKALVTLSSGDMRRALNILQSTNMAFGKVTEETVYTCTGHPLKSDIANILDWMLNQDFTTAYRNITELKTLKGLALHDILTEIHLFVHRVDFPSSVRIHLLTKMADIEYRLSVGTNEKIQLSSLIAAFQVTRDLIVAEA

T1 sequence (P35251 whole entry): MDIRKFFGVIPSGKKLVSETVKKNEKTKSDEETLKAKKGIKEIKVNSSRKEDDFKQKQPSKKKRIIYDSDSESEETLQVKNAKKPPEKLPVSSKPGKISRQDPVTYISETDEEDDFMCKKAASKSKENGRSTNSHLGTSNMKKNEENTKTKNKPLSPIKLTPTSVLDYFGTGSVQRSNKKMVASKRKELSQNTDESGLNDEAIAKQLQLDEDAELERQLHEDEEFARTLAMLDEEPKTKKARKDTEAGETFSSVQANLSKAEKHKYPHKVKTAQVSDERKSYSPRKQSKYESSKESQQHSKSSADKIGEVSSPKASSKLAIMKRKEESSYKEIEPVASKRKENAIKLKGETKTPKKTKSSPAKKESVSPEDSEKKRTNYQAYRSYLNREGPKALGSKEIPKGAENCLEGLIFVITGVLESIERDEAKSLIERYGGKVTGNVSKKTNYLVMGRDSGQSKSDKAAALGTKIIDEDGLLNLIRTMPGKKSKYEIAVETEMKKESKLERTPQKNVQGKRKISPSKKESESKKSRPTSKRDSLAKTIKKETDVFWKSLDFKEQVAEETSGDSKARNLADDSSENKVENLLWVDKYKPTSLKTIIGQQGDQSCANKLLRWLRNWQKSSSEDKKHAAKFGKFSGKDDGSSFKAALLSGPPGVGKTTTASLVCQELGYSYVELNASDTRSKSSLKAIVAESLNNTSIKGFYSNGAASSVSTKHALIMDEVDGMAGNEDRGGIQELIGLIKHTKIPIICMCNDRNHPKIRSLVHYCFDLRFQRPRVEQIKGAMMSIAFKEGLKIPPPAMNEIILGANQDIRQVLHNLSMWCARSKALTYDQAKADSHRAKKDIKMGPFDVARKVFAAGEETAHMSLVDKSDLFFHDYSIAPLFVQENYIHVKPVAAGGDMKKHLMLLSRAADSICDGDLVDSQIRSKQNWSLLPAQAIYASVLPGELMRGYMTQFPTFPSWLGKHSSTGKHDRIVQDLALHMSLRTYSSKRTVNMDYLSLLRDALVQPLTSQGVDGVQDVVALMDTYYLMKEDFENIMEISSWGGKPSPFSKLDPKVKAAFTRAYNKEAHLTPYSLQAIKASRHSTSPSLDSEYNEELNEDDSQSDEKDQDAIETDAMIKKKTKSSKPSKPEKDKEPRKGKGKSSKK
T1 sequence (P35250 whole entry, further chain): as the sequence (P35250 whole entry, further chain) above
T1 sequence (P40938 whole entry, further chain): as the sequence (P40938 whole entry, further chain) above
T1 sequence (P35249 whole entry, further chain): as the sequence (P35249 whole entry, further chain) above
T1 sequence (P40937 whole entry, further chain): as the sequence (P40937 whole entry, further chain) above

Question: What does the source list for `Nc1ncnc2c1ncn2[C@@H]1O[C@H](COP(=O)(O)OP(=O)(O)OP(O)(O)=S)[C@@H](O)[C@H]1O` [ATPγS, adenosine 5′-O-3′-thiotriphosphate]?
Answer: bead pull-down of clamp-clamp loader-DNA ternary complex, Western blot [1]: ternary complex formation on both substrates in the presence of ATPγS was observed; bead pull-down of clamp-clamp loader-DNA ternary complex, Western blot [2]: in the presence of ATPγS ternary complex formation, but not clamp loading

Source: paper PMC261875, “Biochemical Characterization of DNA Damage Checkpoint Complexes: Clamp Loader and Clamp Complexes with Specificity for 5′ Recessed DNA” (PLoS Biology, 2003)
